Measured values: PubChem BioAssay AID179 (DTP/NCI, 2004)
Activity calls are given as the source filed them.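 Rule for the calls: active = compounds giving half or more protection of infected cells from virus-caused growth loss, again on retest; inactive = the rest.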

Test system: CEM cells HIV-1 protection, formazan growth assay
Assay: NCI AIDS Antiviral Assay
Conditions: for IC50: measured here: growth of uninfected CEM cells
How it was run: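 Category rules: moderately active means at least 50% protection on retest, and confirmed active means 100% protection reproducibly. The underlying data came from a formazan growth assay in HIV-1-infected CEM cells.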

Compound: COc1cc2c(cc1OC)-c1cc3ccccc3c(=O)n1CC2
- EC50: > 200 µM
- IC50: 28.2 µM

Compound: CC1CC/C(=C\c2ccc(N(C)C)cc2)C2=C1C(c1ccc(N(C)C)cc1)NC(=S)N2 (configuration not stated)
- EC50: > 100 µM
- IC50: > 100 µM

Compound: CCc1cccc(C)c1NS(=O)(=O)c1ccccc1
- outcome: inactive

Compound: Cc1cc(O)cc(O)c1N=Nc1ccc([N+](=O)[O-])cc1
- EC50: > 200 µM
- IC50: 3.47 µM

Compound: CCCCCCCCCCCCCCCCOCC(Cl)COP(=O)(O)OP(=O)(O)OCC1OC(n2cc(C)c(=O)[nH]c2=O)CC1O (configuration not stated)
- EC50: > 145 µM
- IC50: 123 µM

Compound: CCN(CC)CCNc1c(OC)c(OC)cc2nccnc12
- EC50: > 200 µM
- IC50: 64.6 µM

Compound: CCSC1=N/C(=C\c2ccco2)C(Cl)=N1
- EC50: > 100 µM
- IC50: > 100 µM

Compound: CCN(CC)c1ccc2cc(C(N)=S)c(=N)oc2c1
- EC50: > 61.7 µM
- IC50: 20.4 µM

Compound: CCCCCCNC(=O)CNC(=O)c1ccccc1SC(=O)CCCC[n+]1ccccc1
- EC50: > 200 µM
- IC50: 34.7 µM

Compound: COc1c(OC2OC(CO)C(O)C(O)C2O)cc2occ(-c3ccc4c(c3)OCO4)c(=O)c2c1O (configuration not stated)
- EC50: > 200 µM
- IC50: > 200 µM

Compound: COc1cc(C(=O)O[C@H]2CCC3CCC2N3C)cc(OC)c1OC (some centres not stated)
- EC50: > 200 µM
- IC50: > 200 µM

Compound: CC(C)=CCC/C(C)=C/CC/C(C)=C/OP(=O)(O)OP(=O)(O)O
- EC50: > 162 µM
- IC50: > 162 µM

Compound: COc1cc2c(cc1O)[C@H](C)C(c1ccc(Cl)cc1)O2 (some centres not stated)
- EC50: > 64.6 µM
- IC50: 33.1 µM

Compound: Nc1ncnc2c1ncn2C1OC2(CCSC2)C(O)C1O (configuration not stated)
- EC50: > 200 µM
- IC50: 155 µM

Compound: CC(=O)N1N=C(c2ccc3ccccc3c2O)CC1c1ccc(Cl)cc1Cl (configuration not stated)
- EC50: > 200 µM
- IC50: 22.9 µM

Compound: COc1cc(C2c3cc4c(cc3OC(N3CCOCC3)C2C)OCO4)ccc1O (configuration not stated)
- EC50: > 200 µM
- IC50: 5.13 µM

Compound: O=Nc1ccc(Cl)cc1
- outcome: inactive

Compound: O=Cc1ccccc1OCCOc1cc(OCCOc2ccccc2C=O)c(OCCOc2ccccc2C=O)cc1OCCOc1ccccc1C=O
- EC50: > 1.41 µM
- IC50: > 1.41 µM

Compound: CN(C)C1C(CO)OC(n2cnc3c(N)ncnc32)C1O (configuration not stated)
- EC50: > 200 µM
- IC50: > 200 µM

Compound: OC1(C#CCN2CCCC2)c2ccccc2Sc2ccccc21.[C-]#[O+].[C-]#[O+].[C-]#[O+].[C-]#[O+].[C-]#[O+].[C-]#[O+].[Co].[Co]
- EC50: > 200 µM
- IC50: 4.17 µM

Compound: CCN(CC)CCSc1c2ccccc2nc2c(OC)ccc(OC)c12
- outcome: inactive

Compound: Cc1ccc(SSc2ccc(C(C)(C)C)cc2)cc1
- EC50: > 200 µM
- IC50: 4.27 µM

Compound: CCOC(=O)Cn1c2ccc(Br)cc2c2nc3ccccc3nc21
- EC50: > 100 µM
- IC50: > 100 µM

Compound: Cc1cc2c(cc1Cl)SC(NNC(=O)c1ccco1)=NS2(=O)=O
- EC50: > 200 µM
- IC50: > 200 µM

Compound: CCOC(=O)c1nc2ccc(C(F)(F)F)cc2nc1Nc1cc(OC)c(OC)c(OC)c1
- EC50: > 200 µM
- IC50: > 200 µM

Compound: Nc1nc(N)c2cc(Sc3ccc4nc(N)nc(N)c4c3)ccc2n1
- EC50: > 0.2 µM
- IC50: 0.0708 µM

Compound: CCOC(=O)C1(N)CCc2[nH][nH]c(=O)c2C1 (configuration not stated)
- EC50: > 200 µM
- IC50: > 200 µM

Compound: Cc1ccnc(NS(=O)(=O)c2ccc(NC(=O)Nc3ccc(Cl)c(C(F)(F)F)c3)cc2)n1
- outcome: inactive

Compound: CCOC(=O)C(=Cc1cc(OC)ccc1OC)C(=O)OCC
- EC50: > 117 µM
- IC50: 18.2 µM

Compound: CC(C)CCC(=O)c1ccoc1
- EC50: > 1510 µM
- IC50: > 1510 µM

Compound: COC(=O)C(Cc1nc2ccc(Cl)cc2[nH]c1=O)/C(=N\N)C(=O)Nc1cc(C)c(Cl)cc1S(=O)(=O)O (configuration not stated)
- EC50: > 447 µM
- IC50: 115 µM

Compound: NC(=O)NN=C1CSSC1
- EC50: 18.6 µM
- IC50: 70.8 µM

Compound: Cc1ccc(C2(C)NC(=S)N(NC(N)=S)C2=S)cc1 (configuration not stated)
- EC50: > 32.4 µM
- IC50: > 32.4 µM

Compound: CCC[CH2][Sn]([CH2]CCC)([CH2]CCC)[CH2]S(=O)(=O)O
- outcome: inactive

Compound: O[C@@H]1CCN(Cc2ccccc2)C[C@@H]1CNC12CC3CC(CC(C3)C1)C2
- EC50: > 72.4 µM
- IC50: > 72.4 µM

Compound: COc1ccc2nc3ccc(OC)cc3c(S(=O)(=O)Cc3ccc([N+](=O)[O-])cc3)c2c1
- EC50: > 200 µM
- IC50: > 200 µM

Compound: CN/N=C(/Cc1occc(=O)c1O)C(=O)Nc1ccc(C)c(C)c1
- EC50: > 288 µM
- IC50: > 288 µM

Compound: Cc1ccc(C2=Nn3c(nc4sc5c(c4c3=O)CCCC5)SC2)cc1
- EC50: > 200 µM
- IC50: > 200 µM

Compound: Cc1cccnc1NC(=S)Nc1ncccc1C
- EC50: > 200 µM
- IC50: 186 µM

Compound: CC1NC(=O)c2cc(=O)n(C)c(O)c21 (configuration not stated)
- EC50: > 209 µM
- IC50: > 209 µM

Compound: CC1(C)CC(=O)CC(C)(C)ON1
- outcome: inactive

Compound: COc1cc2c(cc1O)C1(Cc3ccc4c(c3C1=O)OCO4)N(C)CC2 (configuration not stated)
- EC50: > 200 µM
- IC50: > 200 µM

Compound: OC12C=CC(CCCC1)O2 (configuration not stated)
- EC50: > 200 µM
- IC50: 12.3 µM

Compound: O=C(O)c1c2c(nc3ccccc13)CCCC2
- EC50: > 398 µM
- IC50: > 398 µM

Compound: CCCCCCC1N(Cc2ccc(Cl)cc2)CCCN1Cc1ccc(Cl)cc1
- EC50: > 200 µM
- IC50: 12 µM

Compound: Nc1nc(Cl)cc(OCC2(CO)CCCCC2)n1
- EC50: > 200 µM
- IC50: 53.7 µM

Compound: O=C(/C=C/CC(O)(c1ccccc1)c1ccccc1)Nc1ccccc1Cl
- EC50: > 19.1 µM
- IC50: > 19.1 µM

Compound: N#CCc1c(F)c(F)c(F)c(F)c1F
- EC50: > 200 µM
- IC50: > 200 µM

Compound: Cc1ccc(/C=C2\CN(C)CC3C(c4ccc(C)cc4)=C(C#N)C(=O)NC23)cc1 (configuration not stated)
- EC50: > 200 µM
- IC50: > 200 µM

Compound: C=C(CBr)CCCOCc1ccccc1
- EC50: > 200 µM
- IC50: 105 µM

Compound: Cc1ccc(C2=NO[C@@H]3C(=O)N(c4ccc(Cc5ccc(N6C(=O)[C@H]7C(c8ccc(C)cc8)=NO[C@H]7C6=O)cc5)cc4)C(=O)[C@H]23)cc1
- EC50: > 11.5 µM
- IC50: > 11.5 µM

Compound: CCN(CC)CC(=O)Nc1ccc(C(=O)OCC(C)C)cc1
- EC50: > 200 µM
- IC50: 26.9 µM

Compound: CCN(CC)C1CC(O[C@H]2C[C@](O)(C(=O)CO)Cc3c(O)c4c(c(O)c32)C(=O)c2c(OC)cccc2C4=O)OC(C)C1O (some centres not stated)
- outcome: inactive

Compound: COc1oc(C(=O)NC2CCCCC2)c(-c2ccc(Cl)cc2)c1S(=O)(=O)c1ccccc1
- EC50: > 200 µM
- IC50: 9.77 µM

Compound: N#C/C(=C\c1cc(O)c(O)c(O)c1)C(N)=O
- EC50: > 200 µM
- IC50: 91.2 µM

Compound: Nc1nc(Cl)cc(NCC2(O)CC2)n1
- EC50: > 200 µM
- IC50: > 200 µM

Compound: CC1(C23CC4CC(CC(C4)C2)C3)n2c(=O)n(-c3ccccc3)c(=O)n2C1(C)C12CC3CC(CC(C3)C1)C2 (configuration not stated)
- EC50: > 50.1 µM
- IC50: > 50.1 µM

Compound: CCOC(=O)/C(=C\c1ccc(N(C)C)cc1)P(=O)(OCC)OCC
- EC50: > 513 µM
- IC50: 55 µM

Compound: C=C(C)C(C)(C)n1[nH]c(=O)n(-c2ccccc2)c1=O
- EC50: > 200 µM
- IC50: > 200 µM

Compound: O=[N+]([O-])c1ccc(N=Nc2ccc(N=C=S)cc2)cc1
- EC50: > 200 µM
- IC50: 110 µM

Compound: O=C1[C@@H]2C(c3ccc(Cl)cc3Cl)=NO[C@@H]2C(=O)N1c1ccc(Cc2ccc(N3C(=O)[C@H]4C(c5ccc(Cl)cc5Cl)=NO[C@H]4C3=O)cc2)cc1
- EC50: > 7.08 µM
- IC50: > 7.08 µM

Compound: CN(C)C(=S)/N=c1\ss/c(=N/C(=S)N(C)C)n1-c1ccc([N+](=O)[O-])cc1
- EC50: > 200 µM
- IC50: 151 µM

Compound: O=C(O)CNc1cc(-c2ccccc2)nc(NCC(=O)O)n1
- outcome: inactive

Compound: N#Cc1nc(NC(=O)c2ccccc2)sc1N
- EC50: > 200 µM
- IC50: 15.1 µM

Compound: CC1(C)CCc2cc3c(cc2O1)OCC1c2cc(O)c(OCc4ccccc4)cc2OC31 (configuration not stated)
- EC50: > 200 µM
- IC50: 23.4 µM

Compound: O=C(/C=C/c1cccc2ccccc12)c1ccccc1[N+](=O)[O-]
- EC50: > 200 µM
- IC50: 3.24 µM

Compound: COc1ccc(/C=N/N/C(O)=c2/sc(=C(C#N)C#N)n(-c3ccccc3)c2=N)cc1
- EC50: > 9.12 µM
- IC50: > 9.12 µM

Compound: COc1ccc(NC(=O)C2C(=O)N(c3ccc(OC)cc3)C(=O)/C2=N\N)cc1 (configuration not stated)
- EC50: > 1.45 µM
- IC50: > 1.45 µM

Compound: O=P1(O)C=CC2(CCCC2)O1
- EC50: > 200 µM
- IC50: > 200 µM

Compound: O=C1/C(=C\c2ccc(Br)cc2)CCCc2ccccc21
- EC50: > 200 µM
- IC50: 22.4 µM

Compound: Sc1cccc2c(S)cccc12
- EC50: > 200 µM
- IC50: > 200 µM

Compound: O=C(CNC(=O)c1cnc2ccccc2n1)NCCCNC(=O)CNC(=O)c1cnc2ccccc2n1
- EC50: > 100 µM
- IC50: > 100 µM

Compound: O=c1c2ccccc2nc2[nH][nH]c(=S)n12
- EC50: > 200 µM
- IC50: 195 µM

Compound: Nc1c(N=Nc2ccc(-c3ccc(N=Nc4c(S(=O)(=O)O)cc5cc(S(=O)(=O)O)c(N=Nc6ccccc6)c(O)c5c4N)cc3)cc2)ccc2c(S(=O)(=O)O)cccc12
- outcome: inactive

Compound: Cc1cc2c(cc1-c1cc3c(cc1C)C(C(C)C)=C(O)C(=O)/C3=C\Nc1c(C)n(C)n(-c3ccccc3)c1=O)/C(=C/Nc1c(C)n(C)n(-c3ccccc3)c1=O)C(=O)C(O)=C2C(C)C
- EC50: > 200 µM
- IC50: 34.7 µM

Compound: Cc1cc(=O)cc2sc3c(C)cccc3nc1-2
- EC50: > 30.2 µM
- IC50: > 30.2 µM

Compound: Nc1ccc(C(=O)Nc2ccc(/C=C/c3ccc(NC(=O)c4ccc(N)cc4S(=O)(=O)O)cc3S(=O)(=O)O)c(S(=O)(=O)O)c2)c(S(=O)(=O)O)c1
- EC50: 22.4 µM
- IC50: 89.1 µM

Compound: CCOC(=O)c1sc2c(c1OC(=O)c1ccc(OC)cc1)c(=O)n(-c1ccccc1)c(=S)n2-c1ccccc1
- EC50: > 200 µM
- IC50: 38.9 µM

Compound: NC1CN(C(COCc2ccccc2)c2ccc(OCc3ccccc3)cc2)C1=O (configuration not stated)
- outcome: inactive

Compound: OC12OC3(c4ccc(C(F)(F)F)cc4)C4C5CC(C6C5C3C61)C42 (configuration not stated)
- outcome: inactive

Compound: COc1ccc(-n2sc3ncccc3c2=O)cc1
- EC50: > 18.2 µM
- IC50: 6.03 µM

Compound: O=C1c2ccccc2Sc2ccccc2N1CCCCCCN1CCN(c2ccc(F)cc2)CC1
- EC50: > 200 µM
- IC50: 10.5 µM

Compound: COc1cc(CCCOC(=O)/C=C/c2ccc(O)c(O)c2)cc(O)c1O
- EC50: > 200 µM
- IC50: > 200 µM

Compound: COc1ccc(-n2cnc3c(NCC(=O)O)ncnc32)cc1
- EC50: > 200 µM
- IC50: > 200 µM

Compound: CCOCC(CN(CC)CC)N(CC)CC(=O)Nc1c(C)cccc1C (configuration not stated)
- EC50: > 200 µM
- IC50: 4.17 µM

Compound: COc1ccc2c3c(c(C(=O)c4ccccc4)oc13)CCC2
- outcome: inactive

Compound: CCc1cc2c(cc1CCCC(=O)O)CC1(Cc3ccc(C(=O)O)cc3C1)C2 (configuration not stated)
- EC50: > 200 µM
- IC50: 155 µM
